Assay results from patent US12642270B2, “Substituted thiophene carboxamides, thiophene carboxylic acids and derivatives thereof” (Bayer Aktiengesellschaft, priority 2019, dated 2026).

Test: Log P by HPLC on reversed phase columns (EEC directive 79/831 Annex V.A8)
Format: physicochemical
Settings: method [a]
Procedure, shortened: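 Reversed-phase HPLC per EEC 79/831 Annex V.A8, LC-UV with 10→95% acetonitrile linear gradient; eluent [a] 0.1% formic acid (acidic), [b] 0.001 M ammonium acetate (neutral), [c] 0.1% phosphoric acid (acidic). Calibrated with C3–C16 straight-chain alkan-2-ones, linear interpolation of retention times; multiple values joined by "+".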

Compound | LogP
COC(=O)[C@H](CC(=O)OC(C)(C)C)NC(=O)c1sc(Cl)c(Cl)c1Br [1.0552] | 4.59^[a]
COC(=O)C(CCSC(C)=O)NC(=O)c1sc(Br)c(Br)c1F (stereo not shown) [1.0553] | 3.13^[a]
CCOC(=O)C(CSC(C)=O)NC(=O)c1sc(Br)c(Br)c1F (stereo not shown) [1.0554] | 3.18^[a]
COC(=O)C[C@H](NC(=O)c1sc(Br)c(Br)c1F)C(=O)OC [1.0555] | 2.99^[a]
CCOC(=O)C(CSC)NC(=O)c1sc(Br)c(Br)c1F (stereo not shown) [1.0556] | 3.87^[a]
COC(=O)CC[C@H](NC(=O)c1sc(Br)c(Br)c1F)C(=O)OC [1.0557] | 3.07^[a]
CCOC(=O)C[C@H](NC(=O)c1sc(Br)c(Br)c1F)C(=O)OCC [1.0558] | 3.76^[a]
CCOC(=O)CC[C@H](NC(=O)c1sc(Br)c(Br)c1F)C(=O)OCC [1.0559] | 3.84^[a]
COC(=O)[C@H](CC(=O)OC(C)(C)C)NC(=O)c1sc(Br)c(Br)c1F [1.0560] | 4.12^[a]
CCOC(=O)C(CSC(C)=O)NC(=O)c1sc(Br)c(Br)c1Cl (stereo not shown) [1.0561] | 3.44^[a]
CCOC(=O)CC[C@H](NC(=O)c1sc(Cl)c(Cl)c1Br)C(=O)OCC [1.0562] | 4.25^[a]
N#CNC(=O)CNC(=O)c1sc(Br)c(Br)c1F [1.0563] | 2.17^[a]
COC(=O)C1(NC(=O)c2sc(C#N)c(Cl)c2Cl)CCC1 [1.0578] | 2.94^[a]
N#Cc1sc(C(=O)NC2(C(=O)OC3CCC3)CC2)c(Cl)c1Cl [1.0581] | 3.30^[a]
Cc1c(C(=O)NC2(C(=O)OC3CCC3)CC2)sc(Cl)c1Br [1.0590] | 3.81^[a]
CCCOC(=O)C1(NC(=O)c2sc(Br)c(Cl)c2F)CC1 [1.0591] | 3.56^[a]
O=C(NC1(C(=O)OC2CCC2)CC1)c1sc(Br)c(Cl)c1F [1.0592] | 3.72^[a]
CCCOC(=O)C1(NC(=O)c2sc(Cl)c(Br)c2Br)CC1 [1.0593] | 3.98^[a]
O=C(NC1(C(=O)OC2CCC2)CC1)c1sc(Cl)c(Br)c1Br [1.0594] | 4.20^[a]
COC(=O)C1(NC(=O)c2sc(Cl)c(Br)c2Cl)CC1 [1.0595] | 3.11^[a]
CCCOC(=O)C1(NC(=O)c2sc(Cl)c(Br)c2Cl)CC1 [1.0596] | 3.98^[a]

Compound | LogP
O=C(NC1(C(=O)OC2CCC2)CC1)c1sc(Cl)c(Br)c1Cl [1.0597] | 4.15^[a]
CCCOC(=O)C1(NC(=O)c2cc(Cl)c(Br)s2)CC1 [1.0598] | 3.28^[a]
O=C(NC1(C(=O)OC2CCC2)CC1)c1cc(Cl)c(Br)s1 [1.0599] | 3.43^[a]
COC(=O)C1(NC(=O)c2sc(Cl)c(Br)c2C#N)CC1 [1.0600] | 2.36^[a]
CCCOC(=O)C1(NC(=O)c2cc(Br)c(Cl)s2)CC1 [1.0601] | 3.43^[a]
COC(=O)C1(NC(=O)c2sc(Cl)c(Br)c2F)CC1 [1.0603] | 2.70^[a]
O=C(NC1(C(=O)OC2CCC2)CC1)c1cc(Br)c(Cl)s1 [1.0607] | 3.46^[a]
COC(=O)C(C)(C)NC(=O)c1sc(Cl)c(Br)c1C#N [1.0608] | 2.77^[a]
COC(=O)C(NC(=O)c1sc(Cl)c(Br)c1C#N)C1CC1 (stereo not shown) [1.0610] | 2.93^[a]
CC(C)OC(=O)C1(NC(=O)c2sc(Cl)c(Cl)c2Br)CCC1 [1.0611] | 4.69^[a]
COC(=O)C1(NC(=O)c2sc(Cl)c(Cl)c2Br)CC(C)(C)C1 [1.0612] | 4.50^[a]
COC(=O)C1(NC(=O)c2sc(Cl)c(Cl)c2Br)CCC1 [1.0613] | 3.67^[a]
CC(C)(C)OC(=O)C1(NC(=O)c2sc(Cl)c(Cl)c2Br)CC(F)(F)C1 [1.0614] | 4.83^[a]
O=C(NC(C(=O)OCc1ccccc1)C1CC1)c1sc(Br)c(Br)c1Cl (stereo not shown) [1.0615] | 5.07^[a]
CC(C)OC(=O)C1(NC(=O)c2sc(Br)c(Br)c2Cl)CCC1 [1.0616] | 4.71^[a]
O=C(NC(C(=O)OCc1ccccc1)C1CC1)c1sc(Cl)c(Cl)c1Br (stereo not shown) [1.0617] | 5.10^[a]
COC(=O)C1(NC(=O)c2sc(Br)c(Br)c2Cl)CC(C)(C)C1 [1.0618] | 4.52^[a]
O=C(NC(C(=O)OCc1ccccc1)C1CC1)c1sc(Br)c(Br)c1F (stereo not shown) [1.0619] | 4.63^[a]
CC(C)OC(=O)C1(NC(=O)c2sc(Br)c(Br)c2F)CCC1 [1.0620] | 4.23^[a]
COC(=O)C1(NC(=O)c2sc(Br)c(Br)c2F)CC(C)(C)C1 [1.0621] | 4.12^[a]

Continued, values first:

LogP | Compound
2.45^[a] | COC(=O)CNC(=O)c1sc(C)c(Cl)c1Cl [1.0564]
2.98^[a] | COC(=O)C1(NC(=O)c2sc(C#N)c(Br)c2Cl)CCC1 [1.0565]
3.38^[a] | CCOC(=O)C1(NC(=O)c2sc(C#N)c(Br)c2Cl)CCC1 [1.0566]
3.18^[a] | CCCOC(=O)C1(NC(=O)c2sc(C#N)c(Br)c2Cl)CC1 [1.0567]
3.32^[a] | N#Cc1sc(C(=O)NC2(C(=O)OC3CCC3)CC2)c(Cl)c1Br [1.0568]
2.08^[a] | N#CCNC(=O)c1sc(C#N)c(Br)c1Cl [1.0569]
2.60^[a] | CCOC(=O)CNC(=O)c1sc(C#N)c(Cl)c1Cl [1.0570]
2.20^[a] | COC(=O)CNC(=O)c1sc(C#N)c(Cl)c1Cl [1.0571]
2.76^[a] | CCOC(=O)C1(NC(=O)c2sc(C#N)c(Cl)c2Cl)CC1 [1.0572]
2.40^[a] | COC(=O)C1(NC(=O)c2sc(C#N)c(Cl)c2Cl)CC1 [1.0573]
2.90^[a] | COC(=O)C(C)(C)NC(=O)c1sc(C#N)c(Cl)c1Cl [1.0574]
3.89^[a] | CCOC(=O)C(NC(=O)c1sc(C#N)c(Cl)c1Cl)C(C)C (stereo not shown) [1.0575]
3.05^[a] | COC(=O)C(NC(=O)c1sc(C#N)c(Cl)c1Cl)C1CC1 (stereo not shown) [1.0576]
4.11^[a] | CCOC(=O)C(Cc1ccccc1)NC(=O)c1sc(C#N)c(Cl)c1Cl (stereo not shown) [1.0577]
3.35^[a] | CCOC(=O)C1(NC(=O)c2sc(C#N)c(Cl)c2Cl)CCC1 [1.0579]
3.15^[a] | CCCOC(=O)C1(NC(=O)c2sc(C#N)c(Cl)c2Cl)CC1 [1.0580]
2.04^[a] | N#CCNC(=O)c1sc(C#N)c(Cl)c1Cl [1.0582]
2.56^[a] | CCOC(=O)CNC(=O)c1sc(Cl)c(Br)c1C#N [1.0583]
2.20^[a] | COC(=O)CNC(=O)c1sc(Cl)c(Br)c1C#N [1.0584]
2.70^[a] | CCOC(=O)C1(NC(=O)c2sc(Cl)c(Br)c2C#N)CC1 [1.0585]
4.13^[a] | CCOC(=O)C(Cc1ccccc1)NC(=O)c1sc(C#N)c(Br)c1Cl (stereo not shown) [1.0586]
3.08^[a] | COC(=O)C(NC(=O)c1sc(C#N)c(Br)c1Cl)C1CC1 (stereo not shown) [1.0587]
3.92^[a] | CCOC(=O)C(NC(=O)c1sc(C#N)c(Br)c1Cl)C(C)C (stereo not shown) [1.0588]
2.93^[a] | COC(=O)C(C)(C)NC(=O)c1sc(C#N)c(Br)c1Cl [1.0589]
2.44^[a] | COC(=O)C1(NC(=O)c2sc(C#N)c(Br)c2Cl)CC1 [1.0602]
2.63^[a] | CCOC(=O)CNC(=O)c1sc(C#N)c(Br)c1Cl [1.0604]
2.24^[a] | COC(=O)CNC(=O)c1sc(C#N)c(Br)c1Cl [1.0605]
2.79^[a] | CCOC(=O)C1(NC(=O)c2sc(C#N)c(Br)c2Cl)CC1 [1.0606]
3.81^[a] | CCOC(=O)C(NC(=O)c1sc(Cl)c(Br)c1C#N)C(C)C (stereo not shown) [1.0609]
